# Reference: US20230398130A1, “METHODS AND COMPOSITIONS FOR DIFFERENTIATING STEM CELLS” (Massachusetts Institute of Technology, priority 2020, published 2023)
# Key:
# ISC-enriched organoids [1] = assay: Primary screen, 384-well 2.5-D organoid differentiation (ENR+CD, 6 days): carbachol-induced lysozyme secretion (LYZ.S); type: cell-based, murine; settings: for Dose.FC.LYZ.S (log 2 fold change, carbachol-induced lysozyme secretion): vs plate median; for Dose.FC.LYZ.S / Z.LYZ.S / SSMD.LYZ.S: primary screen; for Dose.FC.LYZ.S: FC vs plate median; for Z.LYZ.S: standard z score; for SSMD.LYZ.S: strictly standardized mean difference
# Excerpt: (§1) High-throughput screening.
# ISC-enriched organoids [2] = assay: Primary screen, 384-well 2.5-D organoid differentiation (ENR+CD, 6 days): basal lysozyme secretion (LYZ.NS); type: cell-based, murine; settings: for Dose.FC.LYZ.NS (log 2 fold change, basal lysozyme secretion): vs plate median; for Dose.FC.LYZ.NS: FC vs plate median; for SSMD.LYZ.NS: strictly standardized mean difference
# Excerpt: as §1
# ISC-enriched organoids [3] = assay: Primary screen, 384-well 2.5-D organoid differentiation (ENR+CD, 6 days, Target Selective Inhibitor Library, vs whole-plate median): ATP (CellTiter-Glo 3D, CTG); settings: for Dose.FC.CTG (log 2 fold change, ATP): vs plate median; for Dose.FC.CTG: FC vs plate median; for SSMD.CTG: strictly standardized mean difference
# [4] = Dose 0.08 uM, standard z score of FC
# [5] = Dose 0.40 uM, standard z score of FC
# [6] = Dose 2.00 uM, standard z score of FC
# [7] = Dose 10.00 uM, standard z score of FC
# [8] = 1st of the 4 dose lines of the treatment (dose not given)
# [9] = 2nd of the 4 dose lines of the treatment (dose not given)
# [10] = 3rd of the 4 dose lines of the treatment (dose not given)
# [11] = 4th of the 4 dose lines of the treatment (dose not given)
# [12] = Dose 0.08 uM, primary screen, standard z score
# [13] = Dose 0.40 uM, primary screen, standard z score
# [14] = Dose 2.00 uM, primary screen, standard z score
# [15] = Dose 10.00 uM, primary screen, standard z score
# [16] = primary screen, 1st of the 4 dose lines of the treatment (dose not given)
# [17] = primary screen, 2nd of the 4 dose lines of the treatment (dose not given)
# [18] = primary screen, 3rd of the 4 dose lines of the treatment (dose not given)
# [19] = primary screen, 4th of the 4 dose lines of the treatment (dose not given)
compound,measurement,setting,value
"Cc1cc(Nc2cc(N3CCN(C)CC3)nc(Sc3ccc(NC(=O)C4CC4)cc3)n2)n[nH]1 [VX-680 (Tozasertib, MK-0457)]","Dose.FC.LYZ.S (log 2 fold change, carbachol-induced lysozyme secretion)",ISC-enriched organoids [1]; dose 0.08 uM,−0.078
same,"Dose.FC.LYZ.S (log 2 fold change, carbachol-induced lysozyme secretion)",ISC-enriched organoids [1]; dose 0.40 uM,−0.245
same,"Dose.FC.LYZ.S (log 2 fold change, carbachol-induced lysozyme secretion)",ISC-enriched organoids [1]; dose 2.00 uM,−0.308
same,"Dose.FC.LYZ.S (log 2 fold change, carbachol-induced lysozyme secretion)",ISC-enriched organoids [1]; dose 10.00 uM,−0.342
same,Z.LYZ.NS (standard z score),ISC-enriched organoids [2]; dose 0.08 uM,−0.371
same,"Dose.FC.LYZ.NS (log 2 fold change, basal lysozyme secretion)",ISC-enriched organoids [2]; dose 0.08 uM,−0.043
same,Z.LYZ.NS (standard z score),ISC-enriched organoids [2]; dose 0.40 uM,−1.317
same,"Dose.FC.LYZ.NS (log 2 fold change, basal lysozyme secretion)",ISC-enriched organoids [2]; dose 0.40 uM,−0.151
same,Z.LYZ.NS (standard z score),ISC-enriched organoids [2]; dose 2.00 uM,−1.450
same,"Dose.FC.LYZ.NS (log 2 fold change, basal lysozyme secretion)",ISC-enriched organoids [2]; dose 2.00 uM,−0.166
same,Z.LYZ.NS (standard z score),ISC-enriched organoids [2]; dose 10.00 uM,−2.069
same,"Dose.FC.LYZ.NS (log 2 fold change, basal lysozyme secretion)",ISC-enriched organoids [2]; dose 10.00 uM,−0.238
same,Z.CTG (standard z score),ISC-enriched organoids [3]; dose 0.08 uM,−0.359
same,"Dose.FC.CTG (log 2 fold change, ATP)",ISC-enriched organoids [3]; dose 0.08 uM,−0.150
same,Z.CTG (standard z score),ISC-enriched organoids [3]; dose 0.40 uM,−1.425
same,"Dose.FC.CTG (log 2 fold change, ATP)",ISC-enriched organoids [3]; dose 0.40 uM,−0.596
same,Z.CTG (standard z score),ISC-enriched organoids [3]; dose 2.00 uM,−1.686
same,"Dose.FC.CTG (log 2 fold change, ATP)",ISC-enriched organoids [3]; dose 2.00 uM,−0.706
same,Z.CTG (standard z score),ISC-enriched organoids [3]; dose 10.00 uM,−2.291
same,"Dose.FC.CTG (log 2 fold change, ATP)",ISC-enriched organoids [3]; dose 10.00 uM,−0.959
C/C(=N\NC(=S)N1CCC1)c1ccccn1 [NSC 319726],Dose.FC.LYZ.S,ISC-enriched organoids [1]; Dose 0.08 uM,0.060 log 2 fold change
same,Dose.FC.LYZ.S,ISC-enriched organoids [1]; Dose 0.40 uM,−0.035 log 2 fold change
same,Dose.FC.LYZ.S,ISC-enriched organoids [1]; Dose 2.00 uM,−0.248 log 2 fold change
same,Dose.FC.LYZ.S,ISC-enriched organoids [1]; Dose 10.00 uM,−0.327 log 2 fold change
same,Dose.FC.LYZ.NS,"ISC-enriched organoids [2]; Dose 0.08 uM, primary screen",0.113 log 2 fold change
same,Z.LYZ.NS,ISC-enriched organoids [2]; [4],0.982
same,Dose.FC.LYZ.NS,"ISC-enriched organoids [2]; Dose 0.40 uM, primary screen",−0.090 log 2 fold change
same,Z.LYZ.NS,ISC-enriched organoids [2]; [5],−0.780
same,Dose.FC.LYZ.NS,"ISC-enriched organoids [2]; Dose 2.00 uM, primary screen",−0.152 log 2 fold change
same,Z.LYZ.NS,ISC-enriched organoids [2]; [6],−1.323
same,Dose.FC.LYZ.NS,"ISC-enriched organoids [2]; Dose 10.00 uM, primary screen",−0.229 log 2 fold change
same,Z.LYZ.NS,ISC-enriched organoids [2]; [7],−1.992
same,Dose.FC.CTG,"ISC-enriched organoids [3]; Dose 0.08 uM, primary screen",0.132 log 2 fold change
same,Z.CTG,ISC-enriched organoids [3]; [4],0.316
same,Dose.FC.CTG,"ISC-enriched organoids [3]; Dose 0.40 uM, primary screen",−0.185 log 2 fold change
same,Z.CTG,ISC-enriched organoids [3]; [5],−0.441
same,Dose.FC.CTG,"ISC-enriched organoids [3]; Dose 2.00 uM, primary screen",−0.447 log 2 fold change
same,Z.CTG,ISC-enriched organoids [3]; [6],−1.068
same,Dose.FC.CTG,"ISC-enriched organoids [3]; Dose 10.00 uM, primary screen",−1.907 log 2 fold change
same,Z.CTG,ISC-enriched organoids [3]; [7],−4.555
Cc1cnc(NC(=O)Nc2cc(Br)c(C)cc2OC[C@@H]2CNCCO2)cn1 [LY2603618],Dose.FC.LYZ.S,ISC-enriched organoids [1]; Dose 0.08 uM,0.009 log 2 fold change
same,Dose.FC.LYZ.S,ISC-enriched organoids [1]; Dose 0.40 uM,−0.147 log 2 fold change
same,Dose.FC.LYZ.S,ISC-enriched organoids [1]; Dose 2.00 uM,−0.269 log 2 fold change
same,Dose.FC.LYZ.S,ISC-enriched organoids [1]; Dose 10.00 uM,−0.356 log 2 fold change
same,Z.LYZ.S,ISC-enriched organoids [1]; [8],0.056
same,Z.LYZ.S,ISC-enriched organoids [1]; [9],−0.953
same,Z.LYZ.S,ISC-enriched organoids [1]; [10],−1.737
same,Z.LYZ.S,ISC-enriched organoids [1]; [11],−2.300
same,SSMD.LYZ.S,ISC-enriched organoids [1]; [8],0.065
same,SSMD.LYZ.S,ISC-enriched organoids [1]; [9],−0.885
same,SSMD.LYZ.S,ISC-enriched organoids [1]; [10],−1.421
same,SSMD.LYZ.S,ISC-enriched organoids [1]; [11],−1.890
same,Dose.FC.LYZ.NS,"ISC-enriched organoids [2]; Dose 0.08 uM, primary screen",−0.005 log 2 fold change
same,Z.LYZ.NS,ISC-enriched organoids [2]; [12],−0.046
same,Dose.FC.LYZ.NS,"ISC-enriched organoids [2]; Dose 0.40 uM, primary screen",−0.091 log 2 fold change
same,Z.LYZ.NS,ISC-enriched organoids [2]; [13],−0.791
same,Dose.FC.LYZ.NS,"ISC-enriched organoids [2]; Dose 2.00 uM, primary screen",−0.193 log 2 fold change
same,Z.LYZ.NS,ISC-enriched organoids [2]; [14],−1.685
same,Dose.FC.LYZ.NS,"ISC-enriched organoids [2]; Dose 10.00 uM, primary screen",−0.233 log 2 fold change
same,Z.LYZ.NS,ISC-enriched organoids [2]; [15],−2.026
same,SSMD.LYZ.NS,ISC-enriched organoids [2]; [16],−0.044
same,SSMD.LYZ.NS,ISC-enriched organoids [2]; [17],−0.697
same,SSMD.LYZ.NS,ISC-enriched organoids [2]; [18],−1.609
same,SSMD.LYZ.NS,ISC-enriched organoids [2]; [19],−1.826
same,Dose.FC.CTG,"ISC-enriched organoids [3]; Dose 0.08 uM, primary screen",−0.004 log 2 fold change
same,Z.CTG,ISC-enriched organoids [3]; [12],−0.010
same,Dose.FC.CTG,"ISC-enriched organoids [3]; Dose 0.40 uM, primary screen",−0.238 log 2 fold change
same,Z.CTG,ISC-enriched organoids [3]; [13],−0.567
same,Dose.FC.CTG,"ISC-enriched organoids [3]; Dose 2.00 uM, primary screen",−0.396 log 2 fold change
same,Z.CTG,ISC-enriched organoids [3]; [14],−0.946
same,Dose.FC.CTG,"ISC-enriched organoids [3]; Dose 10.00 uM, primary screen",−0.983 log 2 fold change
same,Z.CTG,ISC-enriched organoids [3]; [15],−2.347
same,SSMD.CTG,ISC-enriched organoids [3]; [16],−0.013
same,SSMD.CTG,ISC-enriched organoids [3]; [17],−0.880
same,SSMD.CTG,ISC-enriched organoids [3]; [18],−1.281
same,SSMD.CTG,ISC-enriched organoids [3]; [19],−2.490
C[C@](O)(COc1ccc(C#N)cc1)C(=O)Nc1ccc(C#N)c(C(F)(F)F)c1 [MK-2866 (GTx-024)],Dose.FC.LYZ.S,ISC-enriched organoids [1]; Dose 0.08 uM,0.072 log 2 fold change
same,Dose.FC.LYZ.S,ISC-enriched organoids [1]; Dose 0.40 uM,0.050 log 2 fold change
same,Dose.FC.LYZ.S,ISC-enriched organoids [1]; Dose 2.00 uM,0.078 log 2 fold change
same,Dose.FC.LYZ.S,ISC-enriched organoids [1]; Dose 10.00 uM,−0.072 log 2 fold change
same,Z.LYZ.S,ISC-enriched organoids [1]; [8],0.466
same,Z.LYZ.S,ISC-enriched organoids [1]; [9],0.322
same,Z.LYZ.S,ISC-enriched organoids [1]; [10],0.506
same,Z.LYZ.S,ISC-enriched organoids [1]; [11],−0.463
same,SSMD.LYZ.S,ISC-enriched organoids [1]; [8],0.378
same,SSMD.LYZ.S,ISC-enriched organoids [1]; [9],0.164
same,SSMD.LYZ.S,ISC-enriched organoids [1]; [10],0.307
same,SSMD.LYZ.S,ISC-enriched organoids [1]; [11],−0.543
same,Dose.FC.LYZ.NS,"ISC-enriched organoids [2]; Dose 0.08 uM, primary screen",0.035 log 2 fold change
same,Z.LYZ.NS,ISC-enriched organoids [2]; [4],0.309
same,Dose.FC.LYZ.NS,"ISC-enriched organoids [2]; Dose 0.40 uM, primary screen",0.028 log 2 fold change
same,Z.LYZ.NS,ISC-enriched organoids [2]; [5],0.241
same,Dose.FC.LYZ.NS,"ISC-enriched organoids [2]; Dose 2.00 uM, primary screen",0.036 log 2 fold change
same,Z.LYZ.NS,ISC-enriched organoids [2]; [6],0.310
same,Dose.FC.LYZ.NS,"ISC-enriched organoids [2]; Dose 10.00 uM, primary screen",−0.059 log 2 fold change
same,Z.LYZ.NS,ISC-enriched organoids [2]; [7],−0.510
same,SSMD.LYZ.NS,ISC-enriched organoids [2]; [16],0.314
same,SSMD.LYZ.NS,ISC-enriched organoids [2]; [17],0.150
same,SSMD.LYZ.NS,ISC-enriched organoids [2]; [18],0.169
same,SSMD.LYZ.NS,ISC-enriched organoids [2]; [19],−0.515
same,Dose.FC.CTG,"ISC-enriched organoids [3]; Dose 0.08 uM, primary screen",0.001 log 2 fold change
same,Z.CTG,ISC-enriched organoids [3]; [4],0.003
same,Dose.FC.CTG,"ISC-enriched organoids [3]; Dose 0.40 uM, primary screen",−0.198 log 2 fold change
same,Z.CTG,ISC-enriched organoids [3]; [5],−0.474
same,Dose.FC.CTG,"ISC-enriched organoids [3]; Dose 2.00 uM, primary screen",−0.088 log 2 fold change
same,Z.CTG,ISC-enriched organoids [3]; [6],−0.210
same,Dose.FC.CTG,"ISC-enriched organoids [3]; Dose 10.00 uM, primary screen",−0.367 log 2 fold change
same,Z.CTG,ISC-enriched organoids [3]; [7],−0.877
same,SSMD.CTG,ISC-enriched organoids [3]; [16],0.004
same,SSMD.CTG,ISC-enriched organoids [3]; [17],−0.285
same,SSMD.CTG,ISC-enriched organoids [3]; [18],−0.199
same,SSMD.CTG,ISC-enriched organoids [3]; [19],−0.814
